Source: patent publication US20020156023A1, “Lometrexol combination therapy” (Tularik Inc., priority 2000, published 2002)
Structures can show the parent of a compound that is named as a salt.

Columns and labels:
[1] = cited from earlier work
[2] = cited from earlier work; remark: listed apart in the source
[3] = Storage stability of drug product / reconstituted solution; format: physicochemical; conditions: reconstituted with 0.9% sodium chloride to approximately 10 mg/mL; vials contain no preservative
Method: Lometrexol sodium for injection is supplied for the study as a lyophilised off-white crystalline solid in single-use vials containing either 50 mg or 200 mg of lometrexol sodium. Vials are stored at room temperature and protected from light. Lometrexol sodium is reconstituted with 0.9% sodium chloride for injection to a concentration of approximately 10 mg/mL. […] Lometrexol sodium is not known to be a vesicant. Lometrexol sodium is administered on Day 1 of every 21-day cycle as a rapid (i.e., 30 to 60 seconds) intravenous bolus immediately prior to the dose of carboplatin. At each dose level shown in Table 1, the appropriate dose of lometrexol sodium is based on the patient's actual calculated body surface area (BSA) at the beginning of each cycle. Note: If the patient's BSA is >2.0 m^2 the dose is calculated using a maximum BSA of 2.0 m^2.
Doxorubicin HCl is available commercially available from several manufacturers in liquid or lyophilised form. The lyophilised powder is stable for 2 years when stored at room temperature and away from direct light. The commercial solution formulations must be stored under refrigeration. […] At each dose level shown in Table 2, the appropriate dose of doxorubicin is based on the patient's actual calculated body surface area (BSA) at the beginning of each 21-day cycle. […]

[4] = system: MDA-MB-231 cells; experiment: MTT cell proliferation assay, kinase inhibitor plus lometrexol, MDA-MB-231 cells; format: cell-based; conditions: showing only mild growth inhibition by EGF
Method: A549 and MDA-MB-231 cells were obtained from the ATCC. Cells were propagated in 75 cm^2 flasks in RPMI 1640 medium with 10% fetal bovine serum, 1% penicillin/streptomycin, and 1% glutamine. To initiate the experiment, cells were plated into 96-well plates at 3000 cells/well with the top and bottom rows containing media only as a negative control. The cells were incubated at 37° C. for 15 hours to allow the cells to adhere. After 15 hours, freshly prepared solutions of lometrexol and the appropriate kinase inhibitor (AG1478 or indirubin-3′-monoxime) at the desired dose were added to the media in varying concentrations in a 5×8 matrix of concentrations. Each plate also contained wells that contained medium only and no added compound. The cells were then incubated for 48 hours with the compounds. The relative cell number was determined using the cell proliferation assay reagent MTT. This reagent is converted by mitochondrial dehydrogenases to a colored formazan product that is then quantified by spectrophotometric analysis. […] The relative effect of the compounds was determined by the percentage of the untreated control cells. […]

[5] = system: phosphorylated EGFR; experiment: EGFR phosphorylation in stimulated A549 cells (immunoprecipitation, western blot, densitometry); format: cell-based; conditions: 24 hours, then 10% fetal bovine serum + 50 ng/ml EGF for 3 hours, FIG. 4
Method: The A549 lung adenocarcinoma cell line was grown under normal cell culture conditions. The cells were plated in 100 mm^2 dishes in RPMI 1640 culture medium containing 1% penicillin/streptomycin, 1% glutamine and 10% fetal bovine serum. The cells were allowed to grow to >95% confluence. Thereafter, the cells were rinsed twice with phosphate-buffered saline followed by the addition of low-serum medium (RPMI 1640 with 1% penicillin/streptomycin and 0.5% fetal bovine serum).
Lometrexol was added in amounts sufficient to achieve incubation concentrations of 0.004, 0.02, 0.1, 0.5 and 2.5 μg/ml. The cells were incubated in the low-serum medium with lometrexol for 24 hours. After the 24-hour incubation, the concentration of fetal bovine serum was increased to 10%, and 50 ng/ml EGF was added to the cells in the presence of lometrexol. The cells were incubated with these stimulants (fetal bovine serum and EGF) for 3 hours. […] The immunoprecipitated protein was separated by SDS-PAGE, and the amount of phosphorylated EGFR was determined by western blot analysis of the resulting gel using chemiluminescent detection. The blot was probed with an antibody that is specific for the activated, phosphorylated form of EGFR (Chemicon, Temecula, Calif.), and the resulting photographic film was analyzed by densitometry.

[6] = system: A549 cells; experiment: MTT cell proliferation assay, kinase inhibitor plus lometrexol, A549 cells; format: cell-based; conditions: for IC50 in A549 cells in the presence of increasing concentrations of lometrexol: 48 hours incubation, MTT, IC50 calculated from the untreated cells, FIG. 1 and FIG. 2
Method: A549 and MDA-MB-231 cells were obtained from the ATCC. Cells were propagated in 75 cm^2 flasks in RPMI 1640 medium with 10% fetal bovine serum, 1% penicillin/streptomycin, and 1% glutamine. To initiate the experiment, cells were plated into 96-well plates at 3000 cells/well with the top and bottom rows containing media only as a negative control. The cells were incubated at 37° C. for 15 hours to allow the cells to adhere. After 15 hours, freshly prepared solutions of lometrexol and the appropriate kinase inhibitor (AG1478 or indirubin-3′-monoxime) at the desired dose were added to the media in varying concentrations in a 5×8 matrix of concentrations. Each plate also contained wells that contained medium only and no added compound. The cells were then incubated for 48 hours with the compounds. The relative cell number was determined using the cell proliferation assay reagent MTT. This reagent is converted by mitochondrial dehydrogenases to a colored formazan product that is then quantified by spectrophotometric analysis. […] The relative effect of the compounds was determined by the percentage of the untreated control cells.
The IC50 value was calculated from the untreated cells. […]. […] The data are presented as % growth relative to cells treated with lometrexol alone. The total incubation time with the compounds was 48 hours.

[7] = system: ATP concentration in A549 cells; experiment: Cellular ATP by luminescent method CellTiter Glo in A549 cells; format: cell-based; conditions: 24 hours incubation with lometrexol, FIG. 5, average of triplicate measurements
Method: A549 cells were propagated in 75 cm^2 flasks in RPMI 1640 medium with 10% fetal bovine serum, 1% penicillin/streptomycin, and 1% glutamine. To initiate the experiment, cells were plated into 96-well plates at 3000 and 10,000 cells/well with the top and bottom rows containing media only as a negative control. The cells were incubated at 37° C. for 15 hours to allow the cells to adhere. After 15 hours, freshly prepared solutions of lometrexol at the desired dose were added to the media in varying concentrations. Each plate also contained wells that contained medium only and no added compound. The cells were then incubated for 24 hours and the amount of ATP was determined by a luminescent method, CellTiter Glo™ (Promega, Madison, Wis.). Concurrently, the cell number was determined in duplicate rows so that the relative ATP concentration per number of cells could be determined. As depicted in FIG. 5 (average of triplicate measurements), the ATP concentration per million cells was decreased in cells treated with lometrexol at concentrations similar to those where the EGFR phosphorylation was effected and at concentrations similar to those which potentiate kinase inhibitors.

## COc1cccc2c1C(=O)c1c(O)c3c(c(O)c1C2=O)C[C@@](O)(C(=O)CO)C[C@@H]3O[C@H]1C[C@H](N)[C@H](O)[C@H](C)O1 [Doxorubicin HCl]
[1]; reconstituted with sterile water for injection or 0.9% sodium chloride
  storage time of reconstituted solution: up to 24 hours
[1]; stored at room temperature and away from direct light
  stability of lyophilised powder: 2 years

## Nc1ccn([C@@H]2O[C@H](CO)[C@@H](O)C2(F)F)c(=O)n1 [Gemcitabine HCl]
[2]; ethanol and polar organic solvents
  solubility in ethanol and polar organic solvents: insoluble
[2]; methanol
  solubility in methanol: slightly soluble
[2]; water
  solubility in water: soluble

## Nc1nc2c(c(=O)[nH]1)C[C@@H](CCc1ccc(C(=O)N[C@@H](CCC(=O)O)C(=O)O)cc1)CN2 [Lometrexol sodium]
[3]
  time to use after reconstitution: ≤ 1 h

## Nc1nc2c(c(=O)[nH]1)CC(CCc1ccc(C(=O)N[C@@H](CCC(=O)O)C(=O)O)cc1)CN2 (stereo partly shown) [lometrexol, 5,10-dideazatetrahydrofolic acid]
[4]
  lometrexol potentiation of kinase inhibitor growth inhibition: no observed potentiation
[5]; lometrexol 0.004, 0.02 and 0.1 μg/ml
  relative amount of phosphorylated-EGFR per mg protein in the cell lysate: 37-56 % of control
[5]; lometrexol 0.5 and 2.5 μg/ml
  relative phosphorylated-EGFR: ≥ 3 % of the activated-control
[6]; cell line sensitive to EGF stimulation
  lometrexol potentiation of kinase inhibitor growth inhibition: potentiation is observed
[7]
  ATP concentration per million cells: decreased

## COc1cc2ncnc(Nc3cccc(Cl)c3)c2cc1OC [tyrphostin AG1478, 4-(3-chloroanilino)-6,7-dimethoxyquinazoline]
[6]
  IC50 in A549 cells in the presence of increasing concentrations of lometrexol: decrease in IC50

## indirubin-3′-monoxime
[6]
  IC50 in A549 cells in the presence of increasing concentrations of lometrexol: decrease in IC50
